{
  "source": "patent US8129425B2",
  "about": "“Small organic molecule regulators of cell proliferation” (Curis, Inc., priority 2000, dated 2012)",
  "key": {"[1]": {"system": "cerebellar neuron precursors", "test": "Cerebellar neuron precursor proliferation (3H-thymidine incorporation)", "assay_type": "cell-based, rat", "conditions": "for induction of 3H thymidine incorporation: absence of Shh", "experimental": "In order to test the efficacy of Hedgehog signaling agonists, the ability of the agonists to stimulate the proliferation of cerebellar neuron precursors was determined. Cerebellar granule neuron precursors are known to respond to Hh protein by proliferating. To test the agonists, cerebellar neurons were dissected out of postnatal (one week) rat brains, and placed into primary cell culture. Treatment agents were added once, on the first day of culture (0 DIV). Cells were left in culture until 2 DIV, when 3H-thymidine was added for 5 hours; the amount of incorporation by the cells of this 3H-thymidine provides a measure of the level of proliferation of the cells. Cells were then lysed, and the incorporation of 3H-thymidine was determined. The positive control was Hh protein, at 1.0 μg/ml final concentration. Hh protein alone caused approximately a 20-fold increase in 3H-thymidine incorporation, consistent with the known ability of Shh to stimulate proliferation of these cells. Non-Hh-protein-stimulated cells, including cells treated with control vehicle (DMSO), had very low levels of proliferation. […] At 5.0 μM, the p-cyanophenyl compound B caused 10.2-fold induction of 3H-thymidine incorporation. […] At 1.0, 0.3, or 0.1 μM, D caused 16-, 17-, or 13-fold induction, respectively, of 3H thymidine incorporation into the cells."}, "[2]": {"system": "hedgehog-responsive Gli-Luc reporter-construct", "test": "Gli-Luc hedgehog pathway reporter assay in [10T1/2(s12)] cells", "assay_type": "cell-based, murine", "conditions": "Table 1", "method_in_brief": "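10T1/2(s12) cells carrying a Gli-Luc reporter, switched to 0.5% FBS medium, then exposed to compound for 24 hr; luciferase read by luminescence. Screen A: 1-2 μM with Hh protein at 0.01 μg/ml (about EC30); Screen B: 5 μM without Hh. Activity expressed as percent of full Hh-induced signal.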"}, "[3]": {"system": "diabetic neuropathy (nerve conduction, vasa nervorum, NGF)", "test": "Streptozotocin (STZ) diabetic rat model of diabetic neuropathy", "assay_type": "in vivo", "experimental": "Diabetes was induced in male Wistar rats (Charles River, UK or Harlan, San Diego, USA) with an intraperitoneal injection (55 mg/kg) of streptozotocin (STZ; Sigma) given after an overnight fast. The drug was freshly dissolved in sterile saline immediately before injection. Three days later, tail vein blood glucose was measured by a strip-operated reflectance photometer and any STZ-treated rats with blood glucose <15 mmol/l were removed from the study. Rats were group-housed with free access to food and water in a 12 h light/dark cycle. At the end of each study, blood samples were collected from all rats, plasma extracted and plasma glucose levels measured by spectophotometric assay using a commercial kit (Sigma, St. Louis, Mo.). […] Motor nerve conduction velocity (MNCV) was measured from latencies of the compound M waves of the electromyogram in the hindlimb, and sensory nerve conduction velocity (SNCV) was measured from H reflex latencies in the same system. […] Stimulation of the nerve was performed at the sciatic notch and Achilles tendon and evoked electromyograms were recorded from the interosseus muscles of the foot. […] NGF was measured in extracts from segments of sciatic nerve by ELISA as described by P. Fernyhough et al. Human recombinant nerve growth factor replaces deficient neurotrophic support in the diabetic rat. […]"}, "[4]": {"system": "ptc-lacZ skin punches", "test": "Skin explants from ptc-lacZ pups (X-Gal stain)", "assay_type": "cell-based, mouse", "conditions": "agonist alone, cultured 6 days", "experimental": "Skin from ptc-lacZ E17.5 pups was excised with a 2 mm skin punch. Those skin punches were then cultured for 6 days in control media, or media including either agonist B or D or Hh protein, or media including both an agonist and Hh protein. The explants were then stained with X-Gal stain."}},
  "note": "pEC50: −log10 of the molar value.",
  "data": [
    {"smiles": "CNC1CCC(N(Cc2ccc(OC)c(-c3ccc(C#N)cc3)c2)C(=O)c2sc3ccccc3c2Cl)CC1", "note": "(centres unmarked) [D]", "values": [
      {"measurement": "induction of 3H thymidine incorporation", "setting": "[1]; 0.1 μM", "value": 13, "unit": "fold"},
      {"measurement": "induction of 3H thymidine incorporation", "setting": "[1]; 0.3 μM", "value": 17, "unit": "fold"},
      {"measurement": "induction of 3H thymidine incorporation", "setting": "[1]; 1.0 μM", "value": 16, "unit": "fold"},
      {"measurement": "stimulation of 3H-thymidine incorporation", "setting": "[1]; absence of Hh protein treatment", "value": "strongly stimulated 3H-thymidine incorporation"},
      {"measurement": "pEC50", "setting": "[2]", "value": "> 7.00"},
      {"measurement": "blood flow to the damaged nerves (sciatic vasa nervorum)", "setting": "[3]; laser Doppler perfusion imaging and BS-1 lectin fluorescent imaging", "value": "improved"},
      {"measurement": "levels of nerve growth factor (NGF) in the sciatic nerve", "setting": "[3]; rat STZ model", "value": "increased levels of nerve growth factor (NGF)"},
      {"measurement": "X-Gal staining of skin explants", "setting": "[4]", "value": "Analogous results"}
    ]}
  ]
}
